Experimental data as given in US20060205788A1, “Compounds having activity at 5ht2c receptor and uses thereof” (priority 2003, published 2006).

- melting point: 98 to 99 °C
SMILES: COc1ccc(C2=CCN(c3ccc(Cl)c(Cl)c3)C2=O)cc1OCCN1CCCCC1
